Experimental data as given in paper PMC7272617 (Scientific Reports, 2020).
Values after ≈ are worked out from the molar mass of the structure shown. Where a SMILES comes first, the peptide text is derived from it.

What was measured:
[1] = system: MDR P. aeruginosa clinical isolate No.2; conditions: MDR clinical isolate No.2, 24 h
[2] = system: all Gram-negative strains; assay: Mean MIC and therapeutic index, Gram-negative strains; assay type: cell-based; conditions: 7 Gram-negative strains of Table 3
[3] = system: Salmonella Typhimurium ATCC 13311; conditions: ATCC 13311, 24 h
[4] = system: MDR P. aeruginosa clinical isolate No.14; conditions: MDR clinical isolate No.14, 24 h
P. aeruginosa ATCC 27853 = conditions: ATCC 27853, 24 h
[5] = system: Bacillus cereus ATCC 11778; conditions: ATCC 11778, 24 h
[6] = system: MDR P. aeruginosa clinical isolate No.6; conditions: MDR clinical isolate No.6, 24 h
[7] = system: MDR P. aeruginosa clinical isolate No.12
[8] = system: MDR P. aeruginosa clinical isolate No.4; conditions: MDR clinical isolate No.4, 24 h
[9] = system: Staphylococcus aureus ATCC 25923; conditions: ATCC 25923, 24 h
[10] = system: MDR P. aeruginosa clinical isolate No.8; conditions: MDR clinical isolate No.8, 24 h
[11] = system: MDR P. aeruginosa clinical isolate No.7; conditions: MDR clinical isolate No.7, 24 h

SMILES: CC[C@H](C)[C@H](NC(=O)[C@H](CCCNC(=N)N)NC(=O)[C@H](CCCCN)NC(=O)[C@H](C)NC(=O)[C@@H](NC(=O)[C@@H](N)CCCCN)[C@@H](C)CC)C(=O)N[C@@H](Cc1c[nH]c2ccccc12)C(=O)N[C@@H](CCCCN)C(=O)N[C@H](C(=O)N[C@@H](CC(C)C)C(=O)N[C@@H](CCCNC(=N)N)C(=O)N[C@@H](CCCNC(=N)N)C(=O)N[C@@H](CCCNC(=N)N)C(N)=O)[C@@H](C)CC [PA-13] (H-KIAKRIWKILRRR-NH2; N-terminus assumed)
- MIC [1]: 7.81 µg/mL (≈ 4.5 µM)
- GM (Gr.− strains): geometric mean of MIC values from all Gram-negative strains [2]: 15.90 µg/mL
- MIC [3]: 1.95 µg/mL (≈ 1.12 µM)
- MIC [4]: 7.81 µg/mL (≈ 4.5 µM)
- MBC (P. aeruginosa ATCC 27853): 7.81 µg/mL (≈ 4.5 µM)
- MIC [5]: 15.63 µg/mL (≈ 9 µM)
- MIC [6]: 7.81 µg/mL (≈ 4.5 µM)
- MIC [7]: 3.91 µg/mL (≈ 2.25 µM)
- MIC [8]: 7.81 µg/mL (≈ 4.5 µM)
- MIC [9]: 62.5 µg/mL (≈ 36 µM)
- MIC [10]: 7.81 µg/mL (≈ 4.5 µM)
- MIC [11]: 7.81 µg/mL (≈ 4.5 µM)
